{"source": "paper PMC8032764", "about": "(Scientific Reports, 2021)", "key": {"[1]": {"assay": "Plasma levels, prepulse inhibition", "format": "in vivo, rat", "details": "approximately 60 min, mean ± SD", "method": "intensities (72, 76, 80, 84 dB) at total plasma concentrations of 56 ± 20, 169 ± 20, and […]\nCompound administered at 1, 3 and 10 mg/kg p.o. to male Sprague-Dawley rats 30 min prior to testing. Bars indicate mean percent prepulse inhibition (% PPI) ± SEM; 10 animals per dose group. Background noise: 68 dB. Startle pulse: 12 0 dB. For full methods refer to:\nNordquist et al. (2008). Effects of aripiprazole/OPC-14597 on motor activity, pharmacological models of psychosis, and brain activity in rats. Neuropharmacology , 54,405-416.\nAnimals were euthanized at the end of testing and plasma samples were collected approximately 60 min post administration; n = 4 rats per group.\n(1 picture or pasted object on this page, not shown here)"}, "healthy subjects": {"system": "healthy subjects", "assay": "Safety in healthy volunteers in the PET and EEG studies", "format": "in vivo, human"}, "Serotonin transporter": {"system": "T1, Serotonin transporter", "T1 construct": "host or cells: CHO", "assay": "Cerep binding", "parameters": "species or system human", "details": "10 μM; [3H]imipramine; hum. recomb. (CHO)"}, "[2]": {"system": "Ca2+ channel, L-type (phenylalkylamine site)", "assay": "Cerep binding", "details": "10 μM; [3H](-)D 888; rat cerebral cortex"}, "[3]": {"system": "Adrenergic α2 (non-selective)", "assay": "Cerep binding", "details": "10 μM; [3H]RX 821002; rat cerebral cortex"}, "Neurotensin NTS1 (NT1)": {"system": "T2, Neurotensin NTS1 (NT1)", "T2 construct": "host or cells: CHO", "assay": "Cerep binding", "parameters": "species or system human", "details": "10 μM; [125I]Tyr3-neurotensin; hum. recomb. (CHO)"}, "Serotonin 5-HT2B": {"system": "T3, Serotonin 5-HT2B", "T3 construct": "purchased Eurofins Cerep", "assay": "Cerep binding", "parameters": "species or system human", "details": "10 μM; [125I](±)DOI; hum. recomb. (CHO)"}, "Opioid κ": {"system": "T4, Opioid κ", "T4 construct": "host or cells: CHO", "assay": "Cerep binding", "parameters": "species or system human", "details": "10 μM; [3H]U 69593; hum. recomb. (CHO)"}, "[4]": {"system": "GABAA Cl- channel (non- selective)", "assay": "Cerep binding", "details": "10 μM; [35S]TBPS; rat cerebral cortex"}, "[5]": {"assay": "Plasma levels, parallel dose groups of water maze", "format": "in vivo, rat", "details": "10 mg/kg p.o., 30 min", "method": "Plasma samples were collected and frozen at − 80 °C for later analysis.\n(§1) The calibration range was from 1.0 to 5000 ng/mL. After protein precipitation with ethanol, the sample solution was injected onto a Gemini C18 trapping column (2 × 10 mm; Phenomenex, Torrance, CA, USA) and polar endogenous compounds and salts were rinsed off. Analytical separation was performed on an Atlantis T3 column (2.1 × 50 mm) (Waters, Milford, MA, USA), using methanol/water containing 0.1% formic acid as mobile phase. A drug analogue was used as an internal standard."}, "[6]": {"system": "T5, Benzodiazepine (peripheral)", "T5 construct": "tissue Eurofins Cerep SA; host or cells: rat heart", "assay": "Cerep binding", "details": "10 μM; [3H]PK 11195; rat heart"}, "Adrenergic β2": {"system": "T6, Adrenergic β2", "T6 construct": "host or cells: CHO", "assay": "Cerep binding", "parameters": "species or system human", "details": "10 μM; [3H](-)CGP 12177; hum. recomb. (CHO)"}, "GABAA-α5 receptors": {"system": "GABAA-α5 receptors", "assay": "Receptor occupancy estimated from free plasma concentrations, object retrieval", "format": "in vivo, Macaca fascicularis", "description": "Free plasma concentrations were used to estimate receptor occupancy."}, "Nociceptin (ORL1)": {"system": "T7, Nociceptin (ORL1)", "T7 construct": "host or cells: HEK-293", "assay": "Cerep binding", "parameters": "species or system human", "details": "10 μM; [3H]nociceptin; hum. recomb. (HEK-293)"}, "Plasma levels, PTZ test": {"assay": "Plasma levels, PTZ test", "format": "in vivo, rat", "method": "Following tonic convulsions, rats were immediately euthanized by decapitation. All other rats were euthanized by decapitation at the end of the 30 min observation period. Plasma samples were collected and frozen at − 80 °C for analysis of drug content.\nas §1"}, "Melanocortin MC4": {"system": "T8, Melanocortin MC4", "T8 construct": "purchased Eurofins Cerep", "assay": "Cerep binding", "parameters": "species or system human", "details": "10 μM; [125I]NDP-α-MSH; hum. recomb. (CHO)"}, "Muscarinic M4": {"system": "T9, Muscarinic M4", "T9 construct": "host or cells: CHO", "assay": "Cerep binding", "parameters": "species or system human", "details": "10 μM; [3H]4-DAMP; hum. recomb. (CHO)"}, "Neurokinin NK1": {"system": "T10, Neurokinin NK1", "T10 construct": "purchased Eurofins Cerep", "assay": "Cerep binding", "parameters": "species or system human", "details": "10 μM; [125I]BH-SP; hum., U-373MG cells"}, "Glucocorticoid": {"system": "T11, Glucocorticoid", "T11 construct": "hum., IM-9 cells,; host or cells: IM-9 cells, cytosol", "assay": "Cerep binding", "parameters": "species or system human", "details": "10 μM; [3H]dexamethasone; hum., IM-9 cells, cytosol"}, "Dopamine D3": {"system": "T12, Dopamine D3", "T12 construct": "host or cells: CHO", "assay": "Cerep binding", "parameters": "species or system human", "details": "10 μM; [3H]spiperone; hum. recomb. (CHO)"}, "SKCa channel": {"system": "SKCa channel", "assay": "Cerep binding", "details": "10 μM; [125I]apamin; rat cerebral cortex"}, "Histamine H1": {"system": "T13, Histamine H1", "T13 construct": "host or cells: HEK-293", "assay": "Cerep binding", "parameters": "species or system human", "details": "10 μM; [3H]pyrilamine; hum. recomb. (HEK-293)"}, "Histamine H2": {"system": "T14, Histamine H2", "T14 construct": "host or cells: CHO", "assay": "Cerep binding", "parameters": "species or system human", "details": "10 μM; [125I]APT; hum. recomb. (CHO)"}, "Serotonin 5-HT6": {"system": "T15, Serotonin 5-HT6", "T15 construct": "purchased Eurofins Cerep", "assay": "Cerep binding", "parameters": "species or system human", "details": "10 μM; [3H]LSD; hum. recomb. (CHO)"}, "Serotonin 5-HT1B": {"system": "T16, Serotonin 5-HT1B", "T16 construct": "purchased Eurofins Cerep", "assay": "Cerep binding", "details": "10 μM; [125I]CYP; rat cerebral cortex"}}, "data": [{"smiles": "Cc1onc(-c2ccc(F)cc2)c1COc1ccc(C(=O)N2CCS(=O)(=O)CC2)cn1", "note": "[basmisanil]", "values": [{"measurement": "total plasma concentration", "setting": "[1]; 1 mg/kg p.o.", "result": "56 ± 20", "unit": "ng/mL"}, {"measurement": "total plasma concentration", "setting": "[1]; 3 mg/kg p.o.", "result": "169 ± 20", "unit": "ng/mL"}, {"measurement": "total plasma concentration", "setting": "[1]; 10 mg/kg p.o.", "result": "729 ± 255", "unit": "ng/mL"}, {"measurement": "safety and tolerability", "setting": "healthy subjects; PET and EEG studies", "result": "safe and well tolerated"}, {"measurement": "adverse events", "setting": "healthy subjects; any cohort", "result": "no severe adverse events"}, {"measurement": "% Inhibition", "setting": "Serotonin transporter", "result": 5, "unit": "%"}, {"measurement": "% Inhibition", "setting": "[2]", "result": -3, "unit": "%"}, {"measurement": "% Inhibition", "setting": "[3]", "result": -8, "unit": "%"}, {"measurement": "% Inhibition", "setting": "Neurotensin NTS1 (NT1)", "result": -6, "unit": "%"}, {"measurement": "% Inhibition", "setting": "Serotonin 5-HT2B", "result": 31, "unit": "%"}, {"measurement": "% Inhibition", "setting": "Opioid κ", "result": 13, "unit": "%"}, {"measurement": "% Inhibition", "setting": "[4]", "result": -6, "unit": "%"}, {"measurement": "maximal plasma level", "setting": "[5]", "result": "903 ± 13", "unit": "ng/mL"}, {"measurement": "% Inhibition", "setting": "[6]", "result": -10, "unit": "%"}, {"measurement": "% Inhibition", "setting": "Adrenergic β2", "result": 10, "unit": "%"}, {"measurement": "estimated receptor occupancy", "setting": "GABAA-α5 receptors; 3 mg/kg p.o.", "result": "about 30%"}, {"measurement": "estimated receptor occupancy", "setting": "GABAA-α5 receptors; 10 mg/kg p.o.", "result": "around 50%"}, {"measurement": "% Inhibition", "setting": "Nociceptin (ORL1)", "result": -4, "unit": "%"}, {"measurement": "free plasma concentration", "setting": "Plasma levels, PTZ test; female rats, 30 mg/kg", "result": 2452, "unit": "nM"}, {"measurement": "free plasma concentration", "setting": "Plasma levels, PTZ test; female rats, 100 mg/kg", "result": 5079, "unit": "nM"}, {"measurement": "free plasma concentration", "setting": "Plasma levels, PTZ test; male rats, 100 mg/kg", "result": 1622, "unit": "nM"}, {"measurement": "% Inhibition", "setting": "Melanocortin MC4", "result": 9, "unit": "%"}, {"measurement": "% Inhibition", "setting": "Muscarinic M4", "result": -4, "unit": "%"}, {"measurement": "% Inhibition", "setting": "Neurokinin NK1", "result": 37, "unit": "%"}, {"measurement": "% Inhibition", "setting": "Glucocorticoid", "result": -2, "unit": "%"}, {"measurement": "% Inhibition", "setting": "Dopamine D3", "result": 3, "unit": "%"}, {"measurement": "% Inhibition", "setting": "SKCa channel", "result": 3, "unit": "%"}, {"measurement": "% Inhibition", "setting": "Histamine H1", "result": 10, "unit": "%"}, {"measurement": "% Inhibition", "setting": "Histamine H2", "result": 8, "unit": "%"}, {"measurement": "% Inhibition", "setting": "Serotonin 5-HT6", "result": 7, "unit": "%"}, {"measurement": "% Inhibition", "setting": "Serotonin 5-HT1B", "result": 0, "unit": "%"}]}]}
